What was measured:
Format in all cases: cell-based, human
[1] = tested on: CD45RA− peripheral T cells; test: Cytokine/chemokine secretion of unselected peripheral CD4+ T cells in response to LRP6; design: IL-1a / IL-1ß / IL-2 / IL-3 / IL-4 / IL-5 / IL-6 / IL-7 / IL-10 / IL-13 / IL-15 / IL-17A / IL-33 / TNF-a: unit not given here; settings: Unselected CD45RA- PBMCs, sheet 6c (right panel)
[2] = tested on: bacteria/microbiota-reactive CFSEdim CD4+ TILs; test: Proliferation of expanded CFSEdim CD4+ TILs that responded to the bacteria/microbiota peptide pool; settings: 5 days; 4 replicate wells; Fig. 4d
[3] = tested on: bacteria/microbiota-reactive peripheral CD4+ T cells; test: Cytokine/chemokine secretion of selected peripheral CD4+ T cells in response to LRP6; design: IL-1a / IL-1ß / IL-2 / IL-3 / IL-4 / IL-5 / IL-6 / IL-7 / IL-10 / IL-13 / IL-15 / IL-17A / IL-33 / TNF-a: unit not given here
[4] = tested on: IPdBP-pre-stimulated peripheral memory CD4+ T cells; test: Cytokine/chemokine response of IPdBP-pre-stimulated peripheral memory CD4+ T cells; design: IL-1α / IL-1β / IL-2 / IL-3 / IL-4 / IL-5 / IL-6 / IL-7 / IL-10 / IL-13 / IL-15 / IL-17A / IL-33 / TNF-α: unit not given here
[5] = Selected peripheral CD4+, sheet 6c (right panel)
[6] = secretion by IPdBP-pre-stimulated peripheral memory CD4+ T cells

## HPFALTLFEDILY [LRP6]
[1]
  CCL2/MCP-1: 0
  CCL3/MIP-1a: 38350.7
  CCL4/MIP-1ß: 1401.95
  CCL11/Eotaxin: 0
  CCL19/MIP-3ß: 0
  CCL20/MIP-3a: 6.73
  CD40 Ligand: 1116.41
  CXCL1/GROa: 804.34
  CXCL2/GROß: 0
  CXCL8/IL-8: 0
  CXCL10/IP-10: 0
  Flt-3 Ligand: 15.31
  GM-CSF: 488.27
  Granzyme B: 0
  IFN-a: 1.18
  IFN-γ: 0
  IL-1a: 104.35
  IL-1ra: 0
  IL-1ß: 600.74
  IL-2: 0
  IL-3: 1.65
  IL-4: 0
  IL-5: 0
  IL-6: 20465.9
  IL-7: 0.54
  IL-10: 27.41
  IL-12p70: 9.74
  IL-13: 0
  IL-15: 1.25
  IL-17A: 0
  IL-17E/IL-25: 0
  IL-33: 7.76
  RANTES: 0
  TNF-a: 67.2
[2]
  recognition by CD4+ TILs pre-stimulated with the bacteria/microbiota peptide pool, by proliferation and/or GM-CSF secretion (in words): recognized
[3]; [5]
  CCL2/MCP-1: 4526.33
  CCL3/MIP-1a: 3125.42
  CCL4/MIP-1ß: 4031.29
  CCL11/Eotaxin: 4.67
  CCL19/MIP-3ß: 6.3
  CCL20/MIP-3a: 6.57
  CD40 Ligand: 1738.81
  CXCL1/GROa: 373.82
  CXCL2/GROß: 350.46
  CXCL8/IL-8: 2606.08
  CXCL10/IP-10: 147.39
  Flt-3 Ligand: 28.81
  GM-CSF: 1627.51
  Granzyme B: 2119.45
  IFN-a: 1.01
  IFN-γ: 159.02
  IL-1a: 15.17
  IL-1ra: 3794.38
  IL-1ß: 23.43
  IL-2: 10.94
  IL-3: 107.37
  IL-4: 4.49
  IL-5: 283.76
  IL-6: 167.44
  IL-7: 0.7
  IL-10: 475.26
  IL-12p70: 16.63
  IL-13: 400.29
  IL-15: 2.76
  IL-17A: 0
  IL-17E/IL-25: 0
  IL-33: 5.21
  RANTES: 798.34
  TNF-a: 1408.41
[3]; compared with the unselected cells, Extended Data Fig. 6c right
  cytokine and chemokine production of selected peripheral CD4+ T cells (in words): produced various cytokines and chemokines
[4]; Extended Data Fig. 7c
  cytokine and chemokine profile of immunopeptidome-reactive peripheral CD4+ T cells (in words): secreted not only GM-CSF but also several other pro-inflammatory cytokines including IFNγ, TNF and granzyme B
[4]; [6]
  CCL2/MCP-1: 0
  CCL3/MIP-1α: 3979.57
  CCL4/MIP-1β: 19527
  CCL11/Eotaxin: 3.84
  CCL19/MIP-3β: 12.07
  CCL20/MIP-3α: 17.43
  CD40 Ligand: 4129.61
  CXCL1/GROα: 0
  CXCL2/GROβ: 123.27
  CXCL8/IL-8: 3466.89
  CXCL10/IP-10: 353.48
  Flt-3 Ligand: 131.58
  GM-CSF: 8661.95
  Granzyme B: 7766.97
  IFN-α: 8.01
  IFN-γ: 1163.95
  IL-1rα: 0
  IL-1α: 19.6
  IL-1β: 20.52
  IL-2: 11.3
  IL-3: 158.99
  IL-4: 7.36
  IL-5: 1023.08
  IL-6: 217.73
  IL-7: 2.53
  IL-10: 4192.28
  IL-12p70: 24.59
  IL-13: 3507.83
  IL-15: 4.26
  IL-17A: 4.67
  IL-17E/IL-25: 0
  IL-33: 22.2
  RANTES: 10050.3
  TNF-α: 3505.52

## REFTKATNVRLRF [LAMA5, vaccine pool peptide from laminin subunit α5]
[2]
  recognition by CD4+ TILs pre-stimulated with the bacteria/microbiota peptide pool, by proliferation and/or GM-CSF secretion (in words): recognized

Reference: paper PMC10208956, “Microbial peptides activate tumour-infiltrating lymphocytes in glioblastoma” (Nature, 2023)
